Experimental findings from patent US20150231069A1, “ORAL FORMULATIONS OF CHEMOTHERAPEUTIC AGENTS” (priority 2014, published 2015) are described below.

Like-named read-outs stand apart in the source and are kept apart here.

By AUC is commonly meant concentration integrated over time.

The subject of data set [1] is MCF-7 cells. In words: Cytotoxicity against MCF-7 cell growth. The class given is cell-based, human. The method, then: The cellular uptake of non-targeted and folic acid (FA)-targeted tumor has affinity for folic acid (breast, tumor, ovarian tumors) microbeads as prepared above was evaluated in human breast carcinoma cell, MCF-7. The microbeads are made specifically to be retained by the tumor sites and tumors have affinity toward the drug and conjugate. To investigate the effect of time on the FA-targeted microbead uptake by FR-bearing cells, […]. MCF-7 cells were incubated with free rhodamine B (free R-B), plain micellar rhodamine B (DOMC/R-B) and FA-micellar rhodamine B (DOMC-FA/R-B) for various periods and visualized using fluorescence microscopy. The cytotoxicity of paclitaxel (PTX) in plain micelles (DOMC/PTX) and FA-micellar PTX (DOMC-FA/PTX) was investigated and compared with that of the free PTX and taxol injection using MCF-7 cells. […] In order to elucidate PTX-loaded micelles induced-apoptosis in MCF-7 cells, Hoechst staining of nuclei was observed after different treatments.

Data set [2] in a line: Human clinical bioavailability study, oral versus i.v. paclitaxel. In kind it is in vivo. The protocol: An open label, two-treatment, single dose, two-period, cross-over, […] Paclitaxel BMS formulation (175 mg) in 11 patients (male or female) suffering from solid tumors, cancers and malignancies refractory to standard therapy were treated under fasting condition.
In this part of the study, the oral course and IV course were randomized. […]
The IV formulation of paclitaxel ([…]; Rhône-Poulenc Rorer/Aventis, Antony, France) was used for both IV and oral administration of the agent. One hour before oral paclitaxel administration, patients received 1 mg of oral granisetron and oral CsA capsules (500 mg). Patients who completed the first course of oral paclitaxel were eligible to receive IV paclitaxel.
Pharmacokinetic monitoring was performed during course i.v. and oral paclitaxel administration. For plasma paclitaxel and metabolite concentrations, blood samples of 5 mL each were collected in heparinized tubes. After oral administration, blood samples were obtained before dosing, at time 0 min and then 15, 30, 45, 60, 75, 90 minutes, and 2, 3, 4, 7, 10, 24, 30, and 48 h after paclitaxel ingestion. […] After centrifugation, the plasma was transferred to a polypropylene storage tube and stored at −20° C. until analyzed. Paclitaxel and metabolite concentrations in plasma were determined using a validated high-performance liquid chromatography (HPLC) assay.

For data set [3] the following is noted: female, C57BL6, mouse, in vivo.
Experimental: One set of experiments was performed in 21 female C57BL6 mice, 8 weeks of age. They were housed and handled according to institutional guidelines. Food and water were given ad libitum. All of the animal experiments were performed in full compliance with a protocol approved by the University Animal Use Committee.
For the oral treatment with paclitaxel (with or without delivery system), 10 mg per gram body weight of inventive formulation was administered by gavage under light diethyl ether anesthesia. Blood samples were collected at, 0, 15 min, 30 min, 1 h, 2 h, 4 h, 8 h, 12 h, and 16 h after drug administration of the oral formulation.
An i.v. formulation of paclitaxel 40 mg/kg was injected into a tail vein under light diethyl ether anesthesia at a dosage of 10 mg per gram body weight. Blood samples were collected at 0, 15 min, 30 min, 1 h, 2 h, 4 h, 8 h, 12 h, and 16 h after IV administration of paclitaxel.
Blood samples were analyzed with a pre-calibrated, validated HPLC method using HPLC Equipment. […] The solvent eluent was monitored using a Varian UV-Visible spectro-photometric detector set at 227 nm. […]
Paclitaxel quantitation was based on standard curves of the peak area and ratios of known amounts of paclitaxel to the internal standard peak from a paclitaxel internal standard. […]
The conditions of data set [4]: female, FVB wild-type, mouse, in vivo.
Experimental: Another set of experiments were performed with female FVB wild-type mice between 9 weeks and 16 weeks of age. Mice were housed and handed according to institutional guidelines.
For oral treatment with paclitaxel, with or without the inventive delivery system, 10 mg per g body weight of formulation was administered by gavage under light diethyl ether anesthesia. Blood samples were collected at 0, 15 min, 30 min, 1 h, 2 h, 4 h, 8 h, 12 h, and 16 h after oral administration.
For intravenous administration, 10 mg per g body weight of an i.v. formulation of paclitaxel was injected into a tail vein under light diethyl ether anesthesia. Blood samples were collected at 0, 15 min, 30 min, 1 h, 2 h, 4 h, 8 h, 12 h, and 16 h after i.v. administration.
Paclitaxel quantitation was based on the HPLC standard curves of the peak area and ratios of known amounts of paclitaxel to the internal standard peak from paclitaxel internal standard.

`CC(=O)O[C@H]1C(=O)[C@@]2(C)[C@H]([C@H](OC(=O)c3ccccc3)[C@]3(O)C[C@H](OC(=O)[C@H](O)[C@@H](NC(=O)c4ccccc4)c4ccccc4)C(C)=C1C3(C)C)[C@]1(OC(C)=O)CO[C@@H]1C[C@@H]2O` [paclitaxel]: the “growth of MCF-7 cells” value in data set [1] is “inhibited the growth of MCF-7 cells”. The AUC in data set [2] (both sexes, plasma, 75 mg/m2, oral 75 mg/m^2, without delivery system, read-out: mean AUC of orally administered paclitaxel) was 420 ± 140 ng·h/mL. The “oral bioavailability (ratio of AUC after oral and after i.v., dose corrected)” value in data set [2] (without delivery system) is 4.3%±1.8; in data set [4] it was 6%±1.6. The “oral bioavailability (ratio of AUC after oral and after IV, dose corrected)” value in data set [3] is listed as 6%±1.6.
